Test results reported in patent publication US20230414499A1, “SUBLINGUAL FILM DOSAGE OF RASAGILINE OR PHARMACEUTICALLY ACCEPTABLE SALT THEREOF, AND PREPARATION METHOD THEREFOR AND USE THEREOF” (priority 2020, published 2023).
Structures can show the parent of a compound that is named as a salt. Where two headings read alike, the source gives them in different places.

Legend:
[1] = after oral administration; cited from earlier work
[2] = Pharmacokinetic test of Beagle dogs; type: in vivo; conditions: both sexes, dog, plasma, po, intragastric administration of solution, 2 mg, n=4, read-out: Absolute bioavailability
Protocol: Sublingual film and intragastric administration: A two-period double crossover test was adopted, and the washout period was 1 week.
The dogs were fasted for 16 hours before administration and had free access to water. After 4 hours of administration, the dogs had free access to water, and food was administered. 2 mL of blood was collected from the forelimb or hindlimb vein before administration (0 h) and 0.033 h, 0.083 h, 0.167 h, 0.25 h, 0.333 h, 0.5 h, 0.75 h, 1 h, 1.5 h, 2 h, 3 h, 4 h, 6 h after administration, and placed in heparin sodium anticoagulation tubes. The collected blood samples were centrifuged immediately (1006×g, 10 min), separated to obtain the plasma and stored at −20° C.

Structure (SMILES): C#CCN[C@@H]1CCc2ccccc21 [Rasagiline mesylate]
- bioavailability [1]: about 36%
- bioavailability [2]: 11.8%
